Measured values taken from patent US8138189B2, “Substituted benzene compounds as modulators of the glucocorticoid receptor” (Hoffman-La Roche Inc., priority 2009, dated 2012).

Each compound was assayed against T1, full length human recombinant glucocorticoid receptor (Homo sapiens, UniProt P04150) (assay: Glucocorticoid Receptor Binding Assay (fluorescence polarization competitor assay, Fluormone GS Far Red tracer)).
T1 construct: partially purified full length human recombinant glucocorticoid receptor; purchased Panvera/Invitrogen PV4302
T1 sequence (P04150 1-777): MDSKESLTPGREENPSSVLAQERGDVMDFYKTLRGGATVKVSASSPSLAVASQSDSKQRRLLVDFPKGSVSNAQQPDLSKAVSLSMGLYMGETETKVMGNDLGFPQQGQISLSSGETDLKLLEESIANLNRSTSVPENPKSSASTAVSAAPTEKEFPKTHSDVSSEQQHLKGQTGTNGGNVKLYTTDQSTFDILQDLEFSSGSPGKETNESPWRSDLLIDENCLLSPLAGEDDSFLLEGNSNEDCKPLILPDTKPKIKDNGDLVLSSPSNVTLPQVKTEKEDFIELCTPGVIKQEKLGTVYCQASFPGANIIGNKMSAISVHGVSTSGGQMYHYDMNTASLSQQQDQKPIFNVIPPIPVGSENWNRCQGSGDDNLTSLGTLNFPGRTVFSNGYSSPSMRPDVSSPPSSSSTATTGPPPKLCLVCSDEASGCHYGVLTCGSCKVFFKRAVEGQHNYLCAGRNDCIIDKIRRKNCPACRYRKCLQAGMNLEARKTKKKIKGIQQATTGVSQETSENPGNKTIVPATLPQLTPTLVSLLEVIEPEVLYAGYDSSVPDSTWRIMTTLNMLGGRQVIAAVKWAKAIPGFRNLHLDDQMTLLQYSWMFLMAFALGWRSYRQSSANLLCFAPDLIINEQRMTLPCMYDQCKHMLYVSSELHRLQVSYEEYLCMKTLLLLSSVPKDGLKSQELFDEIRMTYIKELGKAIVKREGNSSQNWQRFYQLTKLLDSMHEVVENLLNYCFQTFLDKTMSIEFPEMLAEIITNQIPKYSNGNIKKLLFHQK
How it was run: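 Partially purified full-length recombinant human GR with a stabilizing coactivator peptide was incubated with Fluormone GS Far Red tracer and serially diluted compound for 3 h at 22 °C in the dark, pH 7.4. Fluorescence polarization was read at 610-660 nm. IC50 came from sigmoidal fitting, and Ki from Cheng-Prusoff.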

| Ki [nM] | Structure (SMILES) |
| --- | --- |
| 0.7 | C[C@H](c1ccc(Oc2ccc(C(=O)O)cc2Cl)cc1Cl)[C@@](O)(c1ccc(=O)n(C)c1)C(F)(F)F (relative stereo) [Example 157, 3-Chloro-4-{3-chloro-4-[3,3,3-trifluoro-2-hydroxy-1-methyl-2(1-methyl-6-oxo-1,6-dihydro-pyridin-3-yl)-propyl]-phenoxy}-benzoic acid] |
| 307 | Cc1cnc(C(O)(C(C)c2ccc(OCCOc3ccc(C(=O)O)cc3)cc2Cl)C(F)(F)F)cn1 (stereo not drawn) [Example 10, 4-(2-{3-Chloro-4-[3,3,3-trifluoro-2-hydroxy-1-methyl-2-(5-methyl-pyrazin-2-yl)-propyl]-phenoxy}-ethoxy)-benzoic acid] |
| 45.9 | CCOC(=O)c1ccc(COc2ccc([C@@H](C)[C@@](O)(c3ccnc(Cl)c3)C(F)(F)F)c(Cl)c2)cc1 (stereo in doubt) [Example 19, 4-{3-Chloro-4-[2-(2-chloro-pyridin-4-yl)-3,3,3-trifluoro-2-hydroxy-1-methyl-propyl]-phenoxymethyl}-benzoic acid ethyl ester] |
| 45.8 | C[C@@H](c1cc(Oc2ccc(Cl)c(C(=O)O)c2)ccc1Cl)[C@](O)(c1ccc(=O)n(C)c1)C(F)(F)F (stereo in doubt) [Example 196, 2-Chloro-5-{4-chloro-3-[3,3,3-trifluoro-2-hydroxy-1-methyl-2-(1-methyl-6-oxo-1,6-dihydro-pyridin-3-yl)-propyl]-phenoxy}-benzoic acid] |
| 4.7 | COC(=O)c1cnc(Oc2ccc([C@H](C)[C@](O)(c3cc(Cl)c(=O)n(C)c3)C(F)(F)F)c(Cl)c2)cc1C(F)(F)F (stereo in doubt) [Example 223, 6-{3-Chloro-4-[2-(5-chloro-1-methyl-6-oxo-1,6-dihydro-pyridin-3-yl)-3,3,3-trifluoro-2-hydroxy-1-methyl-propyl]-phenoxy}-4-trifluoromethyl-nicotinic acid methyl ester] |
| 0.4 | Cc1cc([C@@](O)([C@@H](C)c2ccc(Oc3ccc(C(=O)O)c(Cl)c3)cc2Cl)C(F)(F)F)cn(C)c1=O (relative stereo) [Example 208, 2-Chloro-4-{3-chloro-4-[2-(1,5-dimethyl-6-oxo-1,6-dihydro-pyridin-3-yl)-3,3,3-trifluoro-2-hydroxy-1-methyl-propyl]-phenoxy}-benzoic acid] |
| 1.9 | C[C@@H](c1ccc(OCc2ccc(CC(=O)O)cc2)cc1Cl)[C@](O)(c1cnc2ccccc2c1)C(F)(F)F (relative stereo) [Example 145, {4-[3-Chloro-4-(3,3,3-trifluoro-2-hydroxy-1-methyl-2-quinolin-3-yl-propyl)-phenoxymethyl]-phenyl}-acetic acid] |
| 601 | Cc1cc([C@@](O)([C@@H](C)c2ccc(Oc3ccc(C(=O)O)cc3Cl)cc2Cl)C(F)(F)F)cn(C)c1=O [Example 244, 3-Chloro-4-{3-chloro-4-[(1S,2S)-2-(1,5-dimethyl-6-oxo-1,6-dihydro-pyridin-3-yl)-3,3,3-trifluoro-2-hydroxy-1-methyl-propyl]-phenoxy}-benzoic acid] |
| 46.2 | C[C@H](c1ccc(Oc2ccc(C(=O)O)c(F)c2)cc1Cl)[C@@](O)(c1ccc(=O)n(C)c1)C(F)(F)F (stereo in doubt) [Example 155, 4-{3-Chloro-4-[3,3,3-trifluoro-2-hydroxy-1-methyl-2-(1-methyl-6-oxo-1,6-dihydro-pyridin-3-yl)-propyl]-phenoxy}-2-fluoro-benzoic acid] |
| 1.8 | COC(=O)c1ccc(Oc2ccc([C@@H](C)[C@@](O)(c3ccc(=O)n(C)c3)C(F)(F)F)c(Cl)c2Cl)cc1 (relative stereo) [Example 197, 4-{2,3-Dichloro-4-[3,3,3-trifluoro-2-hydroxy-1-methyl-2-(1-methyl-6-oxo-1,6-dihydro-pyridin-3-yl)-propyl]-phenoxy}-benzoic acid methyl ester] |
| 98.7 | CCn1cc([C@@](O)([C@@H](C)c2ccc(-c3ccc(C(=O)O)c(OC)c3)cc2Cl)C(F)(F)F)ccc1=O (stereo in doubt) [Example 188, 3′-Chloro-4′-[2-(1-ethyl-6-oxo-1,6-dihydro-pyridin-3-yl)-3,3,3-trifluoro-2-hydroxy-1-methyl-propyl]-3-methoxy-biphenyl-4-carboxylic acid] |
| 10.7 | COc1cc(C(=O)O)ccc1COc1ccc([C@@H](C)[C@@](O)(c2ccnc(Cl)c2)C(F)(F)F)c(Cl)c1 (stereo in doubt) [Example 22, 4-{3-Chloro-4-[2-(2-chloro-pyridin-4-yl)-3,3,3-trifluoro-2-hydroxy-1-methyl-propyl]-phenoxymethyl}-3-methoxy-benzoic acid] |
| 6.4 | COC(=O)c1ccc(COc2ccc(C(C)C(O)(c3ccnc(Cl)c3)C(F)(F)F)c(Cl)c2)nc1 (stereo not drawn) [Example 110, 6-{3-Chloro-4-[2-(2-chloro-pyridin-4-yl)-3,3,3-trifluoro-2-hydroxy-1-methyl-propyl]-phenoxymethyl}-nicotinic acid methyl ester] |
| 3 | COC(=O)c1cnc(Oc2ccc([C@H](C)[C@](O)(c3cc(C)c(=O)n(C)c3)C(F)(F)F)c(Cl)c2)c(Cl)c1 (stereo in doubt) [Example 250, 5-Chloro-6-{3-chloro-4-[2-(1,5-dimethyl-6-oxo-1,6-dihydro-pyridin-3-yl)-3,3,3-trifluoro-2-hydroxy-1-methyl-propyl]-phenoxy}-nicotinic acid methyl ester] |
| 11.8 | COC(=O)c1ccc(COc2ccc([C@@H](C)[C@@](O)(c3cnc(C)cn3)C(F)(F)F)c(Cl)c2)c(Cl)c1 (stereo in doubt) [Example 13, 3-Chloro-4-{3-chloro-4-[3,3,3-trifluoro-2-hydroxy-1-methyl-2-(5-methyl-pyrazin-2-yl)-propyl]-phenoxymethyl}-benzoic acid methyl ester] |
| 97.3 | COc1cc(-c2ccc([C@H](C)[C@](O)(c3ccc(=O)n(C)c3)C(F)(F)F)c(Cl)c2)ccc1C(=O)O (stereo in doubt) [Example 174, 3′-Chloro-3-methoxy-4′-[3,3,3-trifluoro-2-hydroxy-1-methyl-2-(1-methyl-6-oxo-1,6-dihydro-pyridin-3-yl)-propyl]-biphenyl-4-carboxylic acid] |
| 1.3 | COC(=O)c1cnc(Oc2ccc([C@H](C)[C@](O)(c3cc(C)c(=O)n(C)c3)C(F)(F)F)c(Cl)c2)cc1C(F)(F)F (relative stereo) [Example 205, 6-{3-Chloro-4-[2-(1,5-dimethyl-6-oxo-1,6-dihydro-pyridin-3-yl)-3,3,3-trifluoro-2-hydroxy-1-methyl-propyl]-phenoxy}-4-trifluoromethyl-nicotinic acid methyl ester] |
| 30.8 | CC(c1ccc(OCc2ccc(C(=O)O)cc2)cc1Cl)C(O)(c1ccncc1)C(F)(F)F (stereo not drawn) [Example 107, 4-[3-Chloro-4-(3,3,3-trifluoro-2-hydroxy-1-methyl-2-pyridin-4-yl-propyl)-phenoxymethyl]-benzoic acid] |
| 51.4 | C[C@@H](c1cc(Oc2ccc(C(=O)O)c(Cl)c2)ccc1Cl)[C@](O)(c1ccc(=O)n(C)c1)C(F)(F)F (stereo in doubt) [Example 190, 2-Chloro-4-{4-chloro-3-[3,3,3-trifluoro-2-hydroxy-1-methyl-2-(1-methyl-6-oxo-1,6-dihydro-pyridin-3-yl)-propyl]-phenoxy}-benzoic acid] |
| 274 | C[C@H](c1ccc(C(=O)Nc2ccc(CC(=O)O)cc2)cc1Cl)[C@@](O)(c1ccnc(Cl)c1)C(F)(F)F (stereo in doubt) [Example 39, (4-{3-Chloro-4-[2-(2-chloro-pyridin-4-yl)-3,3,3-trifluoro-2-hydroxy-1-methyl-propyl]-benzoylamino}-phenyl)-acetic acid] |
| 93.5 | CC(c1ccc(NC(=O)c2cccc(CC(=O)O)c2)cc1Cl)C(O)(c1ccnc(Cl)c1)C(F)(F)F (stereo not drawn) [Example 73, (3-{3-Chloro-4-[2-(2-chloro-pyridin-4-yl)-3,3,3-trifluoro-2-hydroxy-1-methyl-propyl]-phenylcarbamoyl}-phenyl)-acetic acid] |
| 335 | Cc1cc(C(O)(C(C)c2ccc(-c3ccc(C(=O)O)cn3)cc2Cl)C(F)(F)F)ccn1 (stereo not drawn) [Example 62, 6-{3-Chloro-4-[3,3,3-trifluoro-2-hydroxy-1-methyl-2-(2-methyl-pyridin-4-yl)-propyl]-phenyl}-nicotinic acid] |
| 1.8 | Cc1cc([C@](O)([C@H](C)c2ccc(Oc3ccc(C(=O)O)c(Cl)c3)cc2Cl)C(F)(F)F)sc1C#N [Example 235, 2-Chloro-4-{3-chloro-4-[2-(5-cyano-4-methyl-thiophen-2-yl)-3,3,3-trifluoro-2-hydroxy-1-methyl-propyl]-phenoxy}-benzoic acid] |
| 1.2 | CC(c1ccc(Oc2ccc(C(=O)O)cc2F)cc1Cl)C(O)(c1ccnc(Cl)c1)C(F)(F)F (stereo not drawn) [Example 88, 4-{3-Chloro-4-[2-(2-chloro-pyridin-4-yl)-3,3,3-trifluoro-2-hydroxy-1-methyl-propyl]-phenoxy}-3-fluoro-benzoic acid] |
